Source: article PMC5302413, “Bifunctional peptide-based opioid agonist/nociceptin antagonist ligand for dual treatment of nociceptive and neuropathic pain” (Pain, 2016)
“And” between values parts separate entries of the source, which are not always exact repeats. Equal values may be shown once. Where a name gives a salt, the structure may show the parent alone. Numbered stars: 1 amine (or outer) side, 2 acyl side, 3 side chain; on linkers, the order of the positions; unused ones are H or OH. Square brackets hold non-standard residues; d marks the D form. Peptide text beside a SMILES is read from it. X1 = O=C1C(N[*:1])Cc2ccccc2CN1CCC(=O)[*:2]; Dmt = Cc1cc(O)cc(C)c1C[C@H](N)C(=O)O

Columns and labels:
[1] = cited from earlier work
[2] = cited from earlier work; for Blood–brain barrier transport mechanism: in vitro cell-based human model with BBB-PAMPA
[3] = Whole-body plethysmography, respiratory effects in rats; conditions: Sprague-Dawley, rat, in vivo, iv; for ED50: rats, plethysmography at Tmax, sigmoidal Emax model, mean (CV%)
Sprague-Dawley rats [4] = experiment: as above; conditions: for Inspiratory time E0 / Inspiratory time Emax / Peak of respiratory effects (time) / TI, AUC method, in comparison to controls / Effect on expiratory time (TE) versus baseline, time-course / Effect on minute volume (VM) versus baseline, time-course: IV; for Inspiratory time E0 / Inspiratory time Emax: rats, TI(Tmax) − TI(T0), sigmoidal Emax model, mean (CV%); for Peak of respiratory effects (time) / TI, AUC method, in comparison to controls: time-course study 3A; for Effect on expiratory time (TE) versus baseline, time-course: KGNOP1 from 5 to 240 min, KGOP1 from 15 to 120 min; for Effect on minute volume (VM) versus baseline, time-course: morphine at 30 min, KGNOP1 from 5 to 45 min, KGOP1 at 15 min; for Time after injection at which significant increase in TI started: IV 17.52 μmol/kg morphine, 17.62 μmol/kg tramadol, 0.34 μmol/kg KGNOP1 or KGOP1
NOP receptor = biological target: NOP receptor; set-up: method as in PMID 27035422; conditions: mean ± SEM; read-out: Binding affinity (Ki) NOP receptor; cited from earlier work
[5] = tested on: SN-CCI Sprague-Dawley rats; experiment: Cold-plate test, cold hyperalgesia in SN-CCI rats; type: in vivo, rat; conditions: for Persistence of effects on cold hyperalgesia after injection: IV 0.34 μmol/kg KGNOP1 or KGNOP3 (persisted up to), 17.62 μmol/kg tramadol (declined after), observation 420 min; for Cold hyperalgesia Tmax (time of peak effect): IV 0.34 μmol/kg KGNOP1 or KGNOP3, 17.62 μmol/kg tramadol
Method: We used the chronic constriction injury of the sciatic nerve (SN-CCI) model to induce neuropathic pain in rats.[4] The rat's right sciatic nerve was exposed under anesthesia using ketamine (70 mg/kg intraperitoneally [IP]) and xylazine (10 mg/kg IP). Subsequently, the nerve was ligated proximally to the sciatic trifurcation with four 4-0 chromic gut sutures (Ethicon, Issy-les-Moulineaux, France). Rats were then returned to their individual cages for a recovery period of 14 days, allowing complete anesthesia washout and neuropathic pain development.
The individual SN-CCI rats were kept inside a transparent cylinder on the cooled surface of the plate (4.0°C ± 0.2°C; Panlab, Barcelona, Spain).[15] The total leg lift counts of the right hind paw were counted for 5 minutes. Counts were excluded when the hind paw was lifted while walking. The first measurement was performed after a 10-minute period of accommodation while the animal was quiet. Drugs were intravenously (IV) administered at T0. […] The percentage of decrease in leg lift counts was calculated based on the following equation: [drawing 1]
Cold hyperalgesia was assessed during 420 minutes after the drug administration. Tmax was determined for each drug.

δ-opioid receptor = biological target: δ-opioid receptor; set-up: method as in PMID 27035422; conditions: mean ± SEM; read-out: Binding affinity (Ki) δ-opioid receptor; cited from earlier work
[6] = tested on: guinea pig ileum (mu-opioid receptor); set-up: method as in PMID 27035422; conditions: mean ± SEM, read-out: Opioid activity (IC50) GPI; cited from earlier work
Sprague-Dawley rats [7] = experiment: Hot-plate test, thermal nociception in rats; type: in vivo, rat; conditions: IV, sigmoidal Emax model
Method: The individual rats were kept inside a transparent cylinder on the heated surface of the plate (52.0°C ± 0.2°C; Panlab).[27] Licking, brisk shaking of the hind paw, and jumping were considered as signs of thermal nociception. The cut-off time was set at 60 seconds. The first measurement was performed after a 10-minute period of accommodation while the animal was quiet. Drugs were intravenously (IV) administered at T0. Thermal nociception was recorded at −30, −15, −5, 5, 10, 15, 30, 45, 60, 90, 120, 180, 240, 300, 360, and 420 minutes (study 2A). […] The maximum possible effect (MPE%) was calculated based on the following equation: [drawing 2]
The pharmacological model was applied to the investigated drug effects using the maximum likelihood expectation maximization algorithm implemented in WinNonlin (Version 5.1; Pharsight, Princeton, NJ). A standard error variance model was defined as: [drawing 4] where yi is the ith predicted value from the pharmacological model. All model parameters were assumed to be log-normally distributed. Model selection was based on goodness-of-fit criteria, which included the convergence criterion (CV%), the Akaike information criterion, the estimation criterion value for the maximum likelihood method, and the visual inspection of predicted vs observed and residual plots. Estimated parameters for dose–effect relationships are expressed as mean (CV%).
Thermal nociception was measured during 420 minutes after the drug administration. Tmax was determined for each drug.
Thermal nociception was performed to assess the ED50 at the Tmax previously observed in study 2A.

Sprague-Dawley rats [8] = experiment: Benefit-to-respiratory toxicity ratio (ED50 ratio); conditions: from ED50 on cold hyperalgesia and ED50 on VM, SN-CCI rat, IV
[9] = IV, SN-CCI rats, sigmoidal Emax model, mean (CV%)

Row | SMILES | Blood–brain barrier transport mechanism [2] | Tmax ([3]; 0.34 μmol/kg) | ED50 ([3]; Inspiratory time (TI) ED50, IV) | ED50 ([3]; Minute volume (VM) ED50, IV) | Inspiratory time E0 (Sprague-Dawley rats [4]) | Inspiratory time Emax (Sprague-Dawley rats [4]) | Peak of respiratory effects (time) (Sprague-Dawley rats [4]) | TI, AUC method, in comparison to controls (Sprague-Dawley rats [4]) | Effect on expiratory time (TE) versus baseline, time-course (Sprague-Dawley rats [4]) | Effect on minute volume (VM) versus baseline, time-course (Sprague-Dawley rats [4]) | Persistence of effects on cold hyperalgesia after injection [5] | Cold hyperalgesia Tmax (time of peak effect) ([5]; SN-CCI rats) | Cold hyperalgesia E0 (baseline effect) [5, 9] | Cold hyperalgesia Emax [5, 9] | Time after injection at which significant increase in TI started (Sprague-Dawley rats [4]) | further results
1 | CC[C@H](C)[C@H](NC(=O)[C@H](CCCNC(=N)N)NC(=O)[C@H](Cc1ccc(O)cc1)NC(=O)[C@H](Cc1ccc(O)cc1)NC(=O)[C@H](CCCNC(=N)N)NC(=O)CCN1Cc2ccccc2CC(NC(=O)[C@@H](CCCNC(=N)N)NC(=O)[C@@H](N)Cc2c(C)cc(O)cc2C)C1=O)C(=O)N[C@@H](CCCCN)C(N)=O (stereo partly drawn) [KGNOP1, H-Dmt-D-Arg-Aba-βAla-Arg-Tyr-Tyr-Arg-Ile-Lys-NH2] (H-[Dmt][dR][X1]RYYRIK-NH2) | transported by active mechanisms and not through passive diffusion | 3 h | 0.63 µmol/kg | 0.57 µmol/kg | 0.06 (13.1) s | 0.16 (16.1) s | 180 min | not | significantly decreased | increased | – | – | – | – | – | Stability against enzymatic degradation [1]: has stability against enzymatic degradation; Blood–brain barrier penetration [2]: able to penetrate the blood–brain barrier; VT, AUC method, in comparison to morphine-treated rats (Sprague-Dawley rats [4]; IV 0.34 μmol/kg, P < 0.05): significantly decreased; TE, AUC method, in comparison to morphine- and tramadol-treated rats (Sprague-Dawley rats [4]; IV 0.34 μmol/kg, P < 0.05 and P < 0.01): significantly decreased
2 | CC[C@H](C)[C@H](NC(=O)[C@H](CCCNC(=N)N)NC(=O)[C@H](Cc1ccc(O)cc1)NC(=O)[C@H](Cc1ccc(O)cc1)NC(=O)[C@H](CCCNC(=N)N)NC(C)=O)C(=O)N[C@@H](CCCCN)C(N)=O [KGNOP3, Ac-Arg-Tyr-Tyr-Arg-Ile-Lys-NH2] | transported by active mechanisms and not through passive diffusion | – | – | – | – | – | – | – | – | – | […] | 5 min | −20.1 (20.7) % | −76 (5.1) % | – | Ki (NOP receptor): […]; Cold hyperalgesia ED50 ([5]; IV, SN-CCI rats, cold-plate test at Tmax, sigmoidal Emax model, mean (CV%)): 0.32 μmol/kg and 0.29 (9) μmol/kg
3 | Cc1cc(O)cc(C)c1C[C@H](N)C(=O)N[C@H](CCCNC(=N)N)C(=O)NC1Cc2ccccc2CN(CCC(N)=O)C1=O (stereo partly drawn) [KGOP1, H-Dmt-D-Arg-Aba-βAla-NH2] | transported by active mechanisms and not through passive diffusion | 4 h | 0.52 µmol/kg | 0.66 µmol/kg | 0.029 (9.7) s | 0.15 (15.1) s | 240 min | not | significantly decreased | increased | – | – | – | – | – | Ki (δ-opioid receptor): 17 ± 0.3 nM; IC50 [6]: 0.8 ± 0.1 nM
4 | CN1CC[C@]23c4c5ccc(O)c4O[C@H]2[C@@H](O)C=C[C@H]3[C@H]1C5 [Morphine, Morphine sulfate, reference compound] | – | – | 12.2 µmol/kg | 10.6 µmol/kg | 0.006 (11.5) s | 0.16 (5.9) s | – | – | did not exhibit significant effects | decreased | – | – | – | – | 5 min | Thermal nociception Emax (Sprague-Dawley rats [7]; MPE%, mean (CV%)): 100 (5.1) %; Thermal nociception E0 (baseline effect) (Sprague-Dawley rats [7]; * fixed value): 0* %; ED50 (Sprague-Dawley rats [7]; Rattus norvegicus, hot-plate test at Tmax, mean (CV%)): 14.7 µmol/kg; Effect on tidal volume (VT) versus baseline, time-course (Sprague-Dawley rats [4]; IV 17.52 μmol/kg, at 5, 90, 120, 180, 240, 300 and 360 min): reduction
5 | COc1cccc(C2(O)CCCCC2CN(C)C)c1 (stereo not drawn) [Tramadol, Tramadol hydrochloride, reference compound] | – | – | 50.9 µmol/kg | 50 µmol/kg | 0.006 (14.7) s | 0.17 (34.6) s | 30 min | not | did not exhibit significant effects | – | 60 min | 5 min | −26.4 (21.6) % | −92 (5.6) % | 180 min | Benefit-to-respiratory toxicity ratio, neuropathic pain (ED50 ratio) (Sprague-Dawley rats [8]): 0.24; ED50 ([5]; Rattus norvegicus, IV, SN-CCI rats, cold-plate test at Tmax, sigmoidal Emax model, mean (CV%)): 12.1 µmol/kg; Tmax [3]: 0.5 h; VM, AUC method, compared to controls (Sprague-Dawley rats [4]; IV 17.62 μmol/kg, P < 0.05): significantly decreased
